Measurements: patent publication US8198273B2, “Compounds and methods for kinase modulation, and indications therefor” (Plexxikon Inc., priority 2009, dated 2012)

Experiments:
[1] = tested on: A375 melanoma cells (B-Raf V600E); test: A375 cell growth inhibition (ATPlite); assay type: cell-based; conditions: Homo sapiens, A-375, 72 h; A375, 3 days incubation
Method in brief: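 ATPlite luminescence, taken as a cell-number measure, gave IC50 values after a 3-day 37° C, 5% CO2 incubation. Compounds were tested as 8-point threefold titrations, highest final concentration 10 μM, added to cells seeded the day before.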

[2] = molecular target: CYP2D6 (Homo sapiens, UniProt P10635); test: CYP2D6 inhibition (fluorescent substrate); assay type: in vitro ADME; conditions: CYP2D6, AMMC substrate; read-out: Cyp IC50 2D6
Chain of CYP2D6 (P10635 whole entry): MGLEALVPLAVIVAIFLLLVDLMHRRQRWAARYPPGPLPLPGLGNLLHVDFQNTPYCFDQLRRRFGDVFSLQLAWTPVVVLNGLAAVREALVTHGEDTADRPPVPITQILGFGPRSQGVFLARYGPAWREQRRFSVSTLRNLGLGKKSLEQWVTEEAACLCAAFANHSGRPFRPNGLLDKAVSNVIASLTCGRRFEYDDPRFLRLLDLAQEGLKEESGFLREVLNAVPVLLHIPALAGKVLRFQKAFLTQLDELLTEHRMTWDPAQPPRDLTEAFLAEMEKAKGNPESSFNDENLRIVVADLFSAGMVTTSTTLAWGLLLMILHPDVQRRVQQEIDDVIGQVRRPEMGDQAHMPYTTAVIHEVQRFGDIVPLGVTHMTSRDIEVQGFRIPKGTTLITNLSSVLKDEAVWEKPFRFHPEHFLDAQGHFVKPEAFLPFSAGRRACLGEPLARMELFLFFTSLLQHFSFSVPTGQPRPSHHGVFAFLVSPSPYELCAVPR
Method in brief: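 10-pt 1:1 serial dilution in co-factor mix (DMSO stock 100 mM); 10 min preincubation, 37 °C; reaction at 37 °C. Readout: fluorescent metabolite of probe substrate. IC50 from signal vs [compound].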

[3] = Relative solubility by turbidity in aqueous buffers of varying pH; assay type: physicochemical; conditions: for turbidity threshold (L, M, H) 7.4: HEPES pH 7.4; for turbidity threshold (L, M, H) 4.5: SIF pH 4.5; for turbidity threshold (L, M, H) 6.8: SIF pH 6.8; for turbidity threshold (L, M, H) 1.4: buffer pH 1.4 (SGF)
Method in brief: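 Turbidity endpoint: concentration where optical density at 490, 535 and 650 nm exceeds 0.01, three-wavelength average used. Buffers at pH 1.5, 4.5, 6.8 and 7.4; DMSO serial dilutions of 25 mM stock spiked 1 μL into 99 μL buffer. Low <31.3, moderate 31.3–250, high >250 μM.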

Row | Compound | IC50 [1] | IC50 [2] | turbidity threshold (L, M, H) 7.4 [3] | turbidity threshold (L, M, H) 4.5 [3] | turbidity threshold (L, M, H) 6.8 [3] | turbidity threshold (L, M, H) 1.4 [3]
1 | COc1ccnc2[nH]cc(C(=O)c3c(F)ccc(NS(=O)(=O)c4cccc(F)c4)c3F)c12 [P-2023, N-[2,4-Difluoro-3-(4-methoxy-1H-pyrrolo[2,3-b]pyridine-3-carbonyl)-phenyl]-3-fluoro-benzenesulfonamide] | < 1 µM | > 10 µM | M (moderate solubility if the threshold concentration is 31.3 μM to 250 μM) | M (moderate solubility if the threshold concentration is 31.3 μM to 250 μM) | M (moderate solubility if the threshold concentration is 31.3 μM to 250 μM) | H (high solubility if the threshold concentration is >250 μM)
2 | CCCS(=O)(=O)Nc1ccc(F)c(C(=O)c2c[nH]c3ncc(-c4ccc(NS(C)(=O)=O)cc4)cc23)c1F [P-2165, Propane-1-sulfonic acid {2,4-difluoro-3-[5-(4-methanesulfonylamino-phenyl)-1H-pyrrolo[2,3-b]pyridine-3-carbonyl]-phenyl}-amide] | < 1 µM | > 10 µM | L (low solubility if the threshold concentration is <31.3 04) | L (low solubility if the threshold concentration is <31.3 04) | L (low solubility if the threshold concentration is <31.3 04) | L (low solubility if the threshold concentration is <31.3 04)
3 | COc1ncc(-c2cnc3[nH]cc(C(=O)c4c(F)ccc(NS(=O)(=O)c5cccc(F)c5)c4F)c3c2)cn1 [P-2045, N-{2,4-Difluoro-3-[5-(2-methoxy-pyrimidin-5-yl)-1H-pyrrolo[2,3-b]pyridine-3-carbonyl]-phenyl}-3-fluoro-benzenesulfonamide] | < 5 µM | > 10 µM | M (moderate solubility if the threshold concentration is 31.3 μM to 250 μM) | L (low solubility if the threshold concentration is <31.3 04) | L (low solubility if the threshold concentration is <31.3 04) | L (low solubility if the threshold concentration is <31.3 04)
4 | Cc1cnc2[nH]cc(C(=O)c3c(F)ccc(NS(=O)(=O)c4cccnc4)c3F)c2c1 [P-2069, Pyridine-3-sulfonic acid [2,4-difluoro-3-(5-methyl-1H-pyrrolo[2,3-b]pyridine-3-carbonyl)-phenyl]-amide] | < 5 µM | > 10 µM | H (high solubility if the threshold concentration is >250 μM) | M (moderate solubility if the threshold concentration is 31.3 μM to 250 μM) | M (moderate solubility if the threshold concentration is 31.3 μM to 250 μM) | H (high solubility if the threshold concentration is >250 μM)
5 | O=C(c1c(F)ccc(NS(=O)(=O)c2cc(F)ccc2F)c1F)c1c[nH]c2ncc(Cl)cc12 [P-2002, N-[3-(5-Chloro-1H-pyrrolo[2,3-b]pyridine-3-carbonyl)-2,4-difluoro-phenyl]-2,5-difluoro-benzenesulfonamide] | < 1 µM | > 10 µM | M (moderate solubility if the threshold concentration is 31.3 μM to 250 μM) | L (low solubility if the threshold concentration is <31.3 04) | M (moderate solubility if the threshold concentration is 31.3 μM to 250 μM) | L (low solubility if the threshold concentration is <31.3 04)

Now from value to compound, other results behind:

Row | IC50 [1] | IC50 [2] | Compound | turbidity threshold (L, M, H) 7.4 [3] | turbidity threshold (L, M, H) 4.5 [3] | turbidity threshold (L, M, H) 6.8 [3] | turbidity threshold (L, M, H) 1.4 [3]
6 | < 1 µM | > 10 µM | CCCS(=O)(=O)Nc1ccc(F)c(C(=O)c2c[nH]c3ncc(-c4cnn(Cc5ccccc5)c4)cc23)c1F [P-2190, Propane-1-sulfonic acid {3-[5-(1-benzyl-1H-pyrazol-4-yl)-1H-pyrrolo[2,3-b]pyridine-3-carbonyl]-2,4-difluoro-phenyl}-amide] | L (low solubility if the threshold concentration is <31.3 04) | L (low solubility if the threshold concentration is <31.3 04) | L (low solubility if the threshold concentration is <31.3 04) | L (low solubility if the threshold concentration is <31.3 04)
7 | < 0.1 µM | > 10 µM | CCCS(=O)(=O)Nc1cccc(C(=O)c2c[nH]c3ncc(-c4cnc(N(C)C)nc4)cc23)c1F [P-2408, Propane-1-sulfonic acid {3-[5-(2-dimethylamino-pyrimidin-5-yl)-1H-pyrrolo[2,3-b]pyridine-3-carbonyl]-2-fluoro-phenyl}-amide] | L (low solubility if the threshold concentration is <31.3 04) | L (low solubility if the threshold concentration is <31.3 04) | L (low solubility if the threshold concentration is <31.3 04) | L (low solubility if the threshold concentration is <31.3 04)
8 | < 1 µM | > 10 µM | CCCS(=O)(=O)Nc1ccc(F)c(C(=O)c2c[nH]c3ncc(-c4ccc(C(=O)NCC)nc4)cc23)c1F [P-2151, 5-{3-[2,6-Difluoro-3-(propane-1-sulfonylamino)-benzoyl]-1H-pyrrolo[2,3-b]pyridin-5-yl}-pyridine-2-carboxylic acid ethylamide] | L (low solubility if the threshold concentration is <31.3 04) | L (low solubility if the threshold concentration is <31.3 04) | L (low solubility if the threshold concentration is <31.3 04) | L (low solubility if the threshold concentration is <31.3 04)
9 | < 5 µM | 5 to 10 µM | COc1ncc(-c2cnc3[nH]cc(C(=O)c4c(F)ccc(NS(=O)(=O)c5c(F)cccc5F)c4F)c3c2)cn1 [P-2043, N-{2,4-Difluoro-3-[5-(2-methoxy-pyrimidin-5-yl)-1H-pyrrolo[2,3-b]pyridine-3-carbonyl]-phenyl}-2,6-difluoro-benzenesulfonamide] | M (moderate solubility if the threshold concentration is 31.3 μM to 250 μM) | L (low solubility if the threshold concentration is <31.3 04) | L (low solubility if the threshold concentration is <31.3 04) | L (low solubility if the threshold concentration is <31.3 04)
10 | < 0.1 µM | > 10 µM | CCCS(=O)(=O)Nc1ccc(F)c(C(=O)c2c[nH]c3ncc(-c4ccc(OCCN5CCCC5)nc4)cc23)c1F [P-2233, Propane-1-sulfonic acid (2,4-difluoro-3-{5-[6-(2-pyrrolidin-1-yl-ethoxy)-pyridin-3-yl]-1H-pyrrolo[2,3-b]pyridine-3-carbonyl}-phenyl)-amide] | M (moderate solubility if the threshold concentration is 31.3 μM to 250 μM) | M (moderate solubility if the threshold concentration is 31.3 μM to 250 μM) | L (low solubility if the threshold concentration is <31.3 04) | L (low solubility if the threshold concentration is <31.3 04)
